Test results as given in patent US20080026996A1, “Selective Vpac2 Receptor Reptide Agonists” (ELI LILLY AND COMPANY, priority 2004, published 2008).
pEC50, pIC50: −log10 of the molar value. Where no end group is shown, it is not given here. [ ]: non-standard residue; d: D form. The star is where a group is joined. Orn = NCCC[C@H](N)C(=O)O; Hexanoyl = CCCCCC(=O)*; Aib = CC(C)(N)C(=O)O

Legend:
human VPAC2 [1] = target: T1, human VPAC2 (Homo sapiens, UniProt P41587); experiment: Alpha screen cAMP in vitro potency, human VPAC2 receptor; assay type: cell-based; settings: cAMP generation; single result from two analyses performed in a single run; read-out: Human VPAC2 Receptor: Alpha Screen EC50
T1 construct: expressed in transfected cells
T1 sequence (P41587 24-438): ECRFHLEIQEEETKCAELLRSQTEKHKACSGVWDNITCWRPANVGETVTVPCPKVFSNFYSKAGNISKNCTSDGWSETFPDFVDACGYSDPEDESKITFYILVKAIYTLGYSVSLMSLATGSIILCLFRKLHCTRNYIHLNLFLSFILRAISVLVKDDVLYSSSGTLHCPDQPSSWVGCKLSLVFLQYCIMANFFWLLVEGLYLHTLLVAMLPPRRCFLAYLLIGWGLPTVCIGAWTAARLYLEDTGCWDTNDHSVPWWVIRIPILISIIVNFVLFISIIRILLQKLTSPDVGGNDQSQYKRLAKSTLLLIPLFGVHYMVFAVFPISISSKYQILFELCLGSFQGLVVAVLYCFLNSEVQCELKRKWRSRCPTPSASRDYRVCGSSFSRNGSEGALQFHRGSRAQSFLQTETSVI
Procedure, shortened: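 Dissociated cells, 50,000 per point in stimulation buffer, were incubated with stimuli and AlphaScreen acceptor beads for 60 min.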

human VPAC2 [2] = target: T1, human VPAC2; experiment: Filter binding assay, membranes of stable VPAC2 cell line, 125I-labeled VIP tracer (Table 2); settings: read-out: Human VPAC2 Receptor Binding
Procedure, shortened: (§1)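 Scintillation counting of filter-retained radioligand gave the read-out. Compounds competed with the labelled tracer (about 40000 cpm) for 2.5 μg membranes during 1 hour of shaking in HEPES pH 7.4 buffer containing 0.5% BSA.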

[3] = Rat serum stability studies (remaining active peptide by DiscoveRx cAMP on CHO-VPAC2 cells); assay type: in vitro ADME
Procedure, shortened: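 Rat serum, 18 h: +aprotinin aliquot at 4° C, no-aprotinin aliquot at 37° C. Then 30 min RT step, supernatant removed, 1 h shaking at 300 rpm. DiscoveRx cAMP kit on CHO-VPAC2; EC50 from cAMP data vs standards.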

human VPAC1 = target: T2, human VPAC1 (Homo sapiens, UniProt P32241); experiment: Filter binding assay, membranes of cells transiently transfected with human VPAC1, 125I-labeled VIP tracer (Table 2); set-up: expressed in transfected cells; settings: read-out: Human VPAC1 Receptor Binding
T2 sequence (P32241 31-457): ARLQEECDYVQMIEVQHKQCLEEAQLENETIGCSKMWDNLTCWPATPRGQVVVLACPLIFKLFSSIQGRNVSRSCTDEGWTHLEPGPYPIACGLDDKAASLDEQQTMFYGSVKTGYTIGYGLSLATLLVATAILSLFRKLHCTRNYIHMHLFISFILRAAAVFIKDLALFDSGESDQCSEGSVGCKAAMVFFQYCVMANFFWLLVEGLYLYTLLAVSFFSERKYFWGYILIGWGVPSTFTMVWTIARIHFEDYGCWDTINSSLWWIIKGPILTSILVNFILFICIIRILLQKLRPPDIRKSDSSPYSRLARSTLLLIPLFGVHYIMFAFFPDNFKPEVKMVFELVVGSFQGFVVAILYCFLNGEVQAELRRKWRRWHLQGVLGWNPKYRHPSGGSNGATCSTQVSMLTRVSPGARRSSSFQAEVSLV
Procedure, shortened: as §1

human PAC1 = target: T3, human PAC1 (Homo sapiens, UniProt P41586); experiment: Filter binding assay, membranes of cells transiently transfected with human PAC1, 125I-labeled PACAP-27 tracer (Table 2); set-up: expressed in transfected cells; settings: read-out: Human PAC1 Receptor Binding
T3 sequence (P41586 21-468): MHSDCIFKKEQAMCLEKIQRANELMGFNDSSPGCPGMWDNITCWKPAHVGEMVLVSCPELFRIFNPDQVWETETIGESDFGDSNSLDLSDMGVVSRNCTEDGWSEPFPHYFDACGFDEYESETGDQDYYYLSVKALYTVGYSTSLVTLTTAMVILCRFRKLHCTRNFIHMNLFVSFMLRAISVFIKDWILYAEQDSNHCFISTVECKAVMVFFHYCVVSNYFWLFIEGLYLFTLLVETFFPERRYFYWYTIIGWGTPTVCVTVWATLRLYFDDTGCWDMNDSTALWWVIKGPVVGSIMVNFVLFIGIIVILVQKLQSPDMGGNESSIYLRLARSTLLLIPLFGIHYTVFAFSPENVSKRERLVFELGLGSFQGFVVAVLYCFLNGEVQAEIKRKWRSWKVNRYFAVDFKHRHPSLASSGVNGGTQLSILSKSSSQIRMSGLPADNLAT
Procedure, shortened: as §1

Row | Substance | pEC50 (human VPAC2 [1]) | pIC50 (human VPAC2 [2]) | Rat Serum Stability (estimated purity in % after 18 hours) [3] | pIC50 (human VPAC1) | pIC50 (human PAC1) | Rat Serum Stability (Estimated purity in % after 72 hours) [3]
1 | Hexanoyl-HSDAVFTDNYTRL[Aib]KQVAAKKYLQSIKNKRYGGPSSGAPPPS [Agonist P167] | 9.77 | 8.94 | 14.98% | 5.94 | 6.00 | 
2 | Hexanoyl-HSDAVFTDNYTRLRKQVAAKKYAQSIKNKRYGGPSSGAPPPS [Agonist P235] | 9.09 | 8.83 | 2.62% | 5.87 | 5.95 | 
3 | Hexanoyl-HSDAVFTDNYTRL[Orn][Aib]QVAA[Aib]KYLQSIKNKRYGGPSSGAPPPS [Agonist P319] | 9.59 | 9.16 | 13.53% | < 5.52 | < 4.60 | 
4 | Hexanoyl-HSDAVFTDNYTRLRKQVAAIKYLQSIKNKRYGGPSSGAPPPS [Agonist P149] | 9.39 | 9.21 | 0.29% | 6.67 | 6.11 | 
5 | Hexanoyl-HSDAVFTDNYTRLRKQVAAKRYLQSIKNKRYGGPSSGAPPPS [Agonist P182] | 9.54 | 9.77 | 0.15% | 6.69 | 6.37 | 
6 | Hexanoyl-HSDAVFTDNYTRLL[Aib]QVAA[Aib]KYLQSIKNKRYGGPSSGAPPPS [Agonist P317] | 9.44 | 8.91 | 33.34% | < 5.52 | < 4.60 | 21.5%
7 | Hexanoyl-HSDAVFTDNYTRLQ[Aib]QVAA[Aib]KYLQSIKNKRYGGPSSGAPPPS [Agonist P302] | 9.35 | 8.79 | 21.43% | < 5.52 | < 4.60 | 
8 | Hexanoyl-HSDAVFTDNYTRLRKQVAAKFYLQSIKNKRYGGPSSGAPPPS [Agonist P186] | 9.82 | 9.06 | 0.25% | 6.08 | 6.50 | 
9 | Hexanoyl-HSDAVFTDNYTRLR[Aib]QVAAVKYLQSIKNKRYGGPSSGAPPPS [Agonist P262] | 9.62 | 9.21 | 10.14% | < 5.52 | < 4.60 | 
10 | Hexanoyl-HSDAVFTDNYTRLRKQVAAKKYLQSFKNKRYGGPSSGAPPPS [Agonist P106] | 9.80 | 9.66 | 0.11% | 6.93 | 5.74 | 
11 | Hexanoyl-HSDAVFTDNYTRLRKQVAAYKYLQSIKNKRYGGPSSGAPPPS [Agonist P147] | 9.89 | 9.62 | 0.07% | 6.97 | 6.33 | 
12 | Hexanoyl-HSDAVFTDNYTRLRRQVAAKKYLQSIKNKRYGGPSSGAPPPS [Agonist P176] | 9.55 | 8.16 | <0.14% | 7.03 | 6.64 | 
